From US20070173545A1, “Activation of hypoxia-inducible gene expression” (priority 2003, published 2007)
Entries after “also recorded” stand apart in the source; their conditions may differ.

Assays:
HIF-1a protein = experiment: HIF-1a levels in nuclear extracts of U87 glioma cells (western blot); assay type: cell-based, human; details: 150 μm DFO, four hours
Description: (A) U87 glioma cells cultured in DMEM were switched to Krebs buffer containing 5.5 mM glucose (Glc) and then evaluated for nuclear HIF-1a levels at various times by western blot analysis. (B) HIF-1a levels were measured after four hours incubation of cells in Krebs buffer containing the indicated glucose concentrations or with 5.5 mM 2-deoxyglucose (2-DG) substituted for glucose. (C) HIF-1a levels were measured in U87 cells cultured in glucose-free Krebs buffer following treatment for four hours under normoxia (21% oxygen) hypoxia (1% oxygen) or with 150 μm desferrioxamine (DFO). (D) Induction of HIF-1a by glucose was monitored in the presence of 50 μM IAA or 1 mM 4-CIN. […] Results are representative of experiments repeated at least three times.
Similar measurements were made in the presence of 50 μM IAA or in glucose-free Krebs buffer. […] HIF-1a induction by four hours treatment with 5.5 mM glucose-containing Krebs (Glc) is shown for comparison. (E) Digitonin-permeabilized cells were treated with 1% oxygen or Krebs containing either 5.5 mM glucose or 2 mM pyruvate in the presence of 50 μM IAA. Permeabilized cell in lanes 5 and 6 were treated with 3 mM NAD or NADH respectively in glucose free Krebs. Nuclear HIF-1a levels were determined four hours later. (F) HIF-1a levels were determined after four hour treatment of cells in glucose-free Krebs (lane 1) or 5.5 mM Glucose containing Krebs. […] (H) To measure the decay of the HIF-1a protein, HIF-1a measurements were made after four hour treatment under hypoxia (lane 1), four hours hypoxia followed by 30 minutes normoxia (lane 2), four hour treatment with 150 μM DFO (lane 3), four hours DFO followed by addition of 100 μM CHX for one hour (lane 4), four hours treatment with 2 mM pyruvate (lane 5), and four hours pyruvate followed by addition of 100 μM CHX for one hour (lane 6). (H) HIF-1a levels were determined in digitonin-permeabilized cells treated for four hour with Krebs containing no glucose (lane 1), 1 mM pyruvate (lane 2), or 1 mM pyruvate and 10 mM 2-OG (lane 3).
In order to resolve the biochemical mechanisms underlying this phenomenon, we studied the human glioma cell line U-87 under conditions of carefully defined culture media. Thus we studied these cells while culturing them in freshly prepared Krebs buffer, all components of which were known to us.
To precisely define the glucose metabolite mediating HIF-1a accumulation, we utilized pharmacological inhibitors of glycolysis as well as the direct addition of different glucose metabolites to cells (FIG. 4).

HRE containing promoter [1] = experiment: HRE-GFP reporter in U373 cells; assay type: cell-based, human; details: eight hours, glucose-free medium
Text: (§1) FIG. 18: 2-oxoacids activate HIF-mediated gene expression in human cell lines Effective gene expression by HIF not only involves HIF protein stabilization via inhibition of HPH enzymes but also HIF-1 binding to DNA, inhibition of FIH-1 activity, and gene transcription (see FIG. 1). (A) Glioma cells used in our studies express FIH-1 as assessed using RT-PCR. […] Expression of beta-actin, a housekeeping gene not under HIF regulation is not affected by pyruvate. […] (E) U373 cell were transfected with a green fluorescent protein (GFP) construct under the control of an HIF regulatory element (HRE) containing promoter and then cultured for eight hours in glucose-free medium under the indicated conditions. […] U251 cells stably transfected with a luciferase construct under the control of an HRE containing promoter were cultured for six hours in glucose free Krebs with the following conditions: 1=control, 2=1% oxygen, 3=pyruvate (2 mM), 4=OAA (2 mM), 5=Ethylpyruvate (2 mM), 6=Glucose (5.5 mM), 7=DMOG (0.5 mM), 8=Lactacystin-beta lactone ([…]).
Effective gene expression by HIF not only involves HIF protein stabilization via inhibition of HPH enzymes but also HIF-1 binding to DNA, inhibition of FIH-1 activity, and gene transcription. The human gliomas that we utilized for most of our studies all express mRNA for FIH-1 (FIG. 18A). […]

HRE containing promoter [2] = experiment: HRE-luciferase reporter in U251 cells; assay type: cell-based, human; details: six hours, glucose free Krebs, pyruvate, OAA, Ethylpyruvate 2 mM, Lactacystin-beta lactone 20 mM
Text: as §1
FIG. 19: HIF-mediated gene expression is selectively reversed by ascorbate U251 cells stably expressing HRE-luciferase were cultured in glucose-free Krebs buffer with the indicated conditions for eight hours. Pyruvate, oxaloacetate, and DMOG were added at 1 mM each.
Effective gene expression by HIF not only involves HIF protein stabilization via inhibition of HPH enzymes but also HIF-1 binding to DNA, inhibition of FIH-1 activity, and gene transcription. The human gliomas that we utilized for most of our studies all express mRNA for FIH-1 (FIG. 18A). […] To directly assess activation of gene containing an HRE regulated promoter by the glucose metabolites pyruvate and oxaloacetate, we used U373 glioma cells transfected with an HRE-green fluorescent (HRE-GFP) construct that responds to HIF activation.

[3] = test system: HPH homologues 1, 2 and 3; experiment: ^35S-pVHL pulldown assay, in vitro translated HPH homologues; assay type: biochemical, human; details: 2-OG analogs at 1 mM, 5 mM or 25 mM [2-OG], ascorbate at 2 mM
Description: After incubating the peptide with the HPHs and the indicated reagents, ^35S-pVHL was added followed by addition of streptavidin-coated beads to pull down the HIF-1a peptide. The reaction was pelleted, the pellet was washed and then solubilized for SDS-PAGE analysis followed by autoradiography to reveal the captured ^35S-pVHL. Using in vitro translated HPH homologues we first optimized assay conditions with respect to the required HPH substrates and co-factors. […] Conditions for other reagents were: ascorbate=2 mM, iron sulfate=250 μM, DTT=1 mM. […] Conditions: ascorbate=2 mM, 2-OG=2 mM, DTT=1 mM. […] Conditions: 2-OG=125 μM, iron sulfate=250 μM, DTT=1 mM. […] In all assays 5 μl (about 20 ng) of enzyme and 1 μg of peptide was utilized.
FIG. 13: In vitro effects of 2-OG analogs on recombinant HPH activity HPH activity was assessed via the ^35S-pVHL pulldown assay as in FIG. 11. Activity of in vitro translated HPH homologues was determined in the absence and presence of the 2-OG analogs N-oxalylglycine (NOG), pyruvate or OAA at 1 mM.
To directly evaluate the action of pyruvate and oxaloacetate on HPH activity (step D in FIG. 2) we utilized the commonly used ^35S-pVHL pulldown assay. This assay monitors the ability of HPH homologues to confer ^35S-pVHL binding activity onto a biotinylated 19mer peptide containing the key proline564 residue of the HIF-1a ODD (see FIG. 1). […]

HIF-1a = HIF-1a induction in digitonin-permeabilized human glioma cells (U87, U251); assay type: cell-based; details: 1 mM doses
Description: We determined the ability of each shown structure to induce HIF by exposing digitonin-permeabilized human glioma cells (U87, U251) to 1 mM doses.
At four hours, ATP levels were measured in cell extracts using the luciferase method.
In order to investigate the mechanism of action of the 2-oxoacid HIF inducers that we identified we first determined their effects upon cellular ATP levels. […] As shown in the scheme in FIG. 1, cellular levels of HIF-1a can be elevated by blockade of proteasomal activity, ubiquitinylation, or prolyl hydroxylation. Inhibition of the proteasome by lactacystin beta-lactone (Lbl) leads to accumulation of HIF-1a in its polyubiquitinylated form which generally appears as a smear of higher molecular weight species on western blots. […] Cellular accumulation and nuclear translocation of HIF-1a can also be studied via immunohistochemistry. For this purpose we utilized U251 cells which are more adherent to cell culture dishes that the U87 cells.

Row | Compound | HIF-1a levels in glucose-free Krebs buffer (HIF-1a protein) | HRE-GFP expression (HRE containing promoter [1]) | HRE-luciferase expression (HRE containing promoter [2]) | Inhibition of 2-OG catalyzed HPH activity [3] | Ability to induce HIF (HIF-1a accumulation), structure-activity (HIF-1a)
1 | CC(=O)N(O)CCCCCNC(=O)CCC(=O)N(O)CCCCCNC(=O)CCC(=O)N(O)CCCCCN [DFO, desferrioxamine] | still upregulate HIF-1a protein in the absence of glucose | activated HRE-GFP expression; also recorded: GFP (green fluorescence) was expressed | enhanced HRE-luciferase expression |  | 
2 | O=C(O)CNC(=O)C(=O)O [NOG, N-oxalylglycine] |  |  |  | inhibition by NOG is clearly evident | consistently enhanced HIF-1a levels
